Assay results as given in patent US7476741B2, “Substituted 4H-chromens, 2H-chromenes, chromans and analogs as activators of caspases and inducers of apoptosis and the use thereof” (Cytovia, Inc., priority 2002, dated 2009).

Key:
ZR-75-1 = test: Caspase cascade activation assay (N-(Ac-DEVD)-N'-ethoxycarbonyl-R110 fluorogenic substrate) in ZR-75-1 cells; format: cell-based; conditions: ZR-75-1 human breast cancer cells, 24 h incubation; sigmoidal dose-response; read-out: ZR-75-1 EC50 (nM) (potency)
Experimental: (§1) Human breast cancer cell lines T-47D and ZR-75-1 were grown according to media component mixtures designated by American Type Culture Collection +10% FCS (Invitrogen Corporation), in a 5% CO2−95% humidity incubator at 37° C. T-47D and ZR-75-1 cells were maintained at a cell density between 30 and 80% confluency at a cell density of 0.1 to 0.6×10^6 cells/mL. Cells were harvested at 600×g and resuspended at 0.65×10^6 cells/mL into appropriate media +10% FCS. An aliquot of 45 μL of cells was added to a well of a 96-well microtiter plate containing 5 μL of a 10% DMSO in RPMI-1640 media solution containing 0.16 to 10 μM of 4-(3-bromo-4,5-dimethoxyphenyl)-3-cyano-4H-indolo[4,5-b]pyran (Example 1) or other test compound (0.016 to 1 μM final). An aliquot of 45 μL of cells was added to a well of a 96-well microtiter plate containing 5 μL of a 10% DMSO in RPMI-1640 media solution without test compound as the control sample. The samples were mixed by agitation and then incubated at 37° C. for 24 h in a 5% CO2-95% humidity incubator. After incubation, the samples were removed from the incubator and 50 μL of a solution containing 20 μM of N-(Ac-DEVD)-N′-ethoxycarbonyl-R110 (SEQ ID No.:1) fluorogenic substrate (Cytovia, Inc.; U.S. Pat. No. 6,335,429), 20% sucrose (Sigma), 20 mM DTT (Sigma), 200 mM NaCl (Sigma), 40 mM Na PIPES buffer pH 7.2 (Sigma), and 500 μg/mL lysolecithin (Calbiochem) was added. The samples were mixed by agitation and incubated at room temperature. Using a fluorescent plate reader (Model 1420 Wallac Instruments), an initial reading (T=0) was made approximately 1-2 min after addition of the substrate solution, employing excitation at 485 nm and emission at 530 nm, to determine the background fluorescence of the control sample. After the 3 h incubation, the samples were read for fluorescence as above (T=3 h).
(§2) The Relative Fluorescence Unit values (RFU) were used to calculate the sample readings as follows: RFU(T=3h)−Control RFU(T=0)=Net RFU(T=3h)
(§3) The activity of caspase cascade activation was determined by the ratio of the net RFU value for 4-(3-bromo-4,5-dimethoxyphenyl)-3-cyano-4H-indolo[4,5-b]pyran or other test compound to that of control samples. The EC50 (nM) was determined by a sigmoidal dose-response calculation (Prism 2.0, GraphPad Software Inc.).

T-47D = test: Caspase cascade activation assay (N-(Ac-DEVD)-N'-ethoxycarbonyl-R110 fluorogenic substrate) in T-47D cells; format: cell-based; conditions: T-47D human breast cancer cells, 24 h incubation; ratio of net RFU of compound to control
Experimental: as §1, §2, §3

EC50 (ZR-75-1) [nM]	Compound	T-47D Ratio (caspase activity) (T-47D)
101	COc1ccc2c(c1)OCC(C#N)C2c1cc(OC)c(OC)c(OC)c1 (stereo not drawn) [Example 11, 3-Cyano-7-methoxy-4-(3,4,5-trimethoxyphenyl)-chroman]	9.6
18	CCn1ccc2c3c(ccc21)C(c1cc(Br)c(OC)c(OC)c1)C(C#N)=CO3 (stereo not drawn) [Example 5, 4-(3-Bromo-4,5-dimethoxyphenyl)-3-cyano-7-ethyl-4H-indolo[4,5-b]pyran]	3.6
3080	COc1ccc(C2CC(=O)Oc3c2cc(OC)c(OC)c3OC)cc1O (stereo not drawn) [Example 32, 4-(3-Hydroxy-4-methoxyphenyl)-6,7,8-trimethoxy-chroman-2-one]	4.4
280	COc1cc(C2=C(Cl)COc3cc(N(C)C)ccc32)cc(OC)c1OC [Example 10, 3-Chloro-7-dimethylamino-4-(3,4,5-trimethoxyphenyl)-2H-chromene]	8.2
548	COc1cc(C2CC(O)Oc3cc(NC(C)=O)ccc32)cc(Br)c1OC (stereo not drawn) [Example 27, N-[4-(3-Bromo-4,5-dimethoxyphenyl)-2-hydroxy-chroman-7-yl]-acetamide]	1.3

Compound	EC50 (ZR-75-1) [nM]	T-47D Ratio (caspase activity) (T-47D)
COc1cc(C2CC(OC(C)=O)Oc3c2ccc2c3ccn2C)cc(Br)c1OC (stereo not drawn) [Example 20, 2-Acetoxy-4-(3-bromo-4,5-dimethoxyphenyl)-7-methyl-pyrrolo[2,3-h]chroman]	3	4.7
